Counter-ions that a name gives are not always drawn.
Target: adenosine A2A receptor (Homo sapiens, UniProt P29274)
Assay: adenosine A2A receptor agonist assay (method of Murphree et al, Mol Pharmacol 61, 455-462, 2002)
Assay type: binding
Settings: method of L. J. Murphree et al
Excerpt: Compounds of formula (I) and their pharmaceutically acceptable salts are useful as pharmaceuticals. In particular, they activate the adenosine A2A receptor, i.e., they act as A2A receptor agonists.

adenosine A2A receptor, sequence (P29274 whole entry): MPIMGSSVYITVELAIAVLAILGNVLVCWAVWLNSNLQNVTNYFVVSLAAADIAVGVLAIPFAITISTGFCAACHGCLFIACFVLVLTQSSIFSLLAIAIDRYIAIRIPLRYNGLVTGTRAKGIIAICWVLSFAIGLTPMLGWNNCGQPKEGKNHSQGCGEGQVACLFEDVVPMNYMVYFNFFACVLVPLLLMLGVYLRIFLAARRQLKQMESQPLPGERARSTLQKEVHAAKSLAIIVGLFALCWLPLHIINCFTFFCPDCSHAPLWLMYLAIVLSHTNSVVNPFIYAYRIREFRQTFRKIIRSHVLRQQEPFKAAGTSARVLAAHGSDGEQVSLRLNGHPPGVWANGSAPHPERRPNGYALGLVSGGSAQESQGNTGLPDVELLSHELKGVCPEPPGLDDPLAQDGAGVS

Compound | Ki
C[C@@H]1NC(=O)N([C@H]2C[C@@H](n3cnc4c(NCC(c5ccccc5)c5ccccc5)nc(N5CC[C@@H](NC(=O)Nc6cccnc6)C5)nc43)[C@H](O)[C@@H]2O)C1=O [Example C1] | 89 nM
O=C(Nc1cccnc1)N[C@@H]1CCN(c2nc(NCC(c3ccccc3)c3ccccc3)c3ncn([C@@H]4C[C@H](N5C(=O)CNC5=O)[C@@H](O)[C@H]4O)c3n2)C1 [Example C2, 1-{(R)-1-[9-[(1R,2S,3R,4S)-4-(2,5-Dioxo-imidazolidin-1-yl)-2,3-dihydroxy-cyclopentyl]-6-(2,2-diphenyl-ethylamino)-9H-purin-2-yl]-pyrrolidin-3-yl}-3-pyridin-3-yl-urea trifluoroacetate] | 33 nM
